Measurements: patent US6417393B1, “Phenyl derivatives containing an acidic group, their preparation and their use as chloride channel blockers” (Neurosearch A/S, priority 1996, dated 2002)
pIC50: −log10 of the molar value.

Experiments:
[1] = test system: erythrocyte chloride channels; test: Cl- conductance (GCl) from concomitant measurements of conductive Cl- netfluxes and membrane potentials in suspensions of normal erythrocytes; assay type: cell-based, Human; details: suspension of normal erythrocytes; read-out: IC50-value for block of GCl
Source text: (§1) The compounds of the present invention are potent blockers of chloride channels in normal as well as sickle cell erythrocytes.
(§2) All dose-response experiments were therefore performed by concomitant measurements of conductive netfluxes of Cl^− (JCl) and membrane potentials (Vm) in suspensions of erythrocytes (Bennekou, P. and Christophersen, P. (1986), Flux ratio of Valinomycin—Mediated K^+ Fluxes across the Human Red Cell Membrane in the presence of the Protronophore CCCP. J. Membrane Biol. 93, 221-227. ). The membrane Cl^−-conductances were calculated by the following equation (Hodgkin, A. L. and Huxley, A. F. (1952) The components of membrane conductance in the giant axon of loligo. J. Physiol. Lond. 116, 449-472): [formula]
(§3) where F is the Faraday constant and ECl is the Nernst potential for the Cl-ion.

[2] = test system: chloride channels of sickle cell erythrocytes; test: Cl- conductance (GCl) in oxygenated and deoxygenated homozygoteous sickle cell erythrocytes; assay type: cell-based, Human; details: oxygenated as well as deoxygenated homozygoteous sickle cell erythrocytes; compared with normal erythrocytes
Source text: as §1, §2, §3

[3] = test system: erythrocytes; test: Valinomycin induced cell volume loss (relative volume of packed cells); assay type: cell-based; details: valinomycin for 5 min
Protocol: Inducing a massive water and salt loss (KCI) by addition the K^+-ionophore valinomycin to the suspension for 5 min reduced the cell volume by 26%.

[4] = test system: sickle erythrocytes; test: K+ flux from sickle erythrocytes, basal and deoxygenation induced (extracellular K+-concentration vs time); assay type: cell-based; details: 10 μM; oxygenated sickle erythrocytes
Source text: Deoxygenation induced permeability increases of sickle cells were estimated by measuring the extracellular K^+-concentration vs time. […] The K^+ flux from oxygenated sickle erythrocytes was 2-3 times higher than from normal erythrocytes and these fluxes was accelerated 4-8 times upon deoxygenation.

[5] = test system: mice; test: Toxicity to mice; assay type: in vivo; details: up to 150 mg/kg i.p. and i.v.
Protocol: N-(3-Trifluoromethylphenyl)-N′-(2-carboxyphenyl) urea was non-toxic to mice at concentrations up to 150 mg/kg i.p. and i.v.

O=C(Nc1cccc(C(F)(F)F)c1)Nc1ccccc1C(=O)O [3′-Trifluoromethylphenyl-2-carboxyphenyl Urea] was tested, and the pIC50 [1] was 6.22, the “block of GCl from sickle cell erythrocytes” value [2] was “equipotently blocked” and the pIC50 ([3]; Erythrocyte, 5 min, read-out: IC50-value for reduction of valinomycin induced volume loss) was 5.92. For the same molecule, the “cell volume loss remaining in presence of compound” value ([3]; volume loss without compound 26%) was 7%, the “basal K+-flux from sickle erythrocytes” value [4] was “normalised” and the toxicity to mice [5] was “non-toxic”.
